Source: patent US20250049828A1, “PHARMACEUTICAL COMPOSITION FOR TREATING TUMORS AND USE” (INXMED (NANJING) CO., LTD., priority 2021, published 2025)

Columns and labels:
[1] = system: ovarian cancer cells SK-OV-3; experiment: CCK8 cell viability / cell killing curve; type: cell-based; conditions: Homo sapiens, SK-OV-3, drug alone, 72 hours
Experimental: A 96-well cell plate was plated with 5000 SK-OV-3 cells/well. After 24 hours, a drug with a maximum concentration of 20 μM was added and diluted with a 3-fold gradient dilution to set a total of 9 concentrations, with the lowest concentration being […]. After the drug and cells were co-incubated for 72 hours, 10 μL of CCK8 solution was added to each well, and the plate was incubated in a 37° C. and 5% carbon dioxide incubator for 2 hours. Then, a microplate reader was used for reading with a set absorbance wavelength of 450 nm. The values read were compared with the DMSO control group and plotted using Graphpad 8.0.
A 96-well cell plate was plated with 5000 SK-OV-3 cells/well. […] Adriamycin at these dosages was combined with 3 μM IN10018. After 72 hours of co-culture with the cells, cell viability was detected using CCK8 method. Graphpad 8.0 was used for plotting.
A 96-well cell plate was plated with 5000 SK-OV-3 cells/well. […] Adriamycin at these dosages was combined with 3 μM Defactinib. After 72 hours of co-culture with the cells, cell viability was detected using CCK8 method. Graphpad 8.0 was used for plotting.

[2] = system: CT26 cells; experiment: Microscope observation and flow cytometry of CRT and Annexin-V positive cells; type: cell-based, mouse; conditions: IN10018 5 μM, Adriamycin 1 μM, alone or combined, 48 hours
Experimental: Then the cells were collected for flow analysis.
The culture conditions were 37° C. and 5% CO2.

[3] = system: IFN-γ; experiment: ELISA of IFN-γ in serum of CT26 tumor-bearing mice; type: in vivo, BALB/c mice; conditions: IN10018 25 mg/kg PO QD × 8, Doxil 3 mg/kg i.v. QW × 2; blood 24 hours after the second administration of Doxil; n=5
Experimental: (§1) BALB/c mice (from Shanghai Lingchang Biotechnology Co., Ltd.) were used to construct the CT26 tumor cell model. When the tumor volume reached about 40 to 60 mm^3, the mice were randomly divided into groups according to the tumor volume and administered.
(§2) 24 hours after the second administration of Doxil, blood was collected from the orbit of four groups of animals. The blood was placed in a collection tube without anticoagulant and left standing to naturally coagulate at room temperature for 30 to 60 minutes. When the blood coagulated, the blood was centrifuged at 1000 rpm, 4° C. for 10 minutes. The upper serum was transferred to a new collection tube and stored in a −80° C. freezer.

[4] = system: Granzyme B; experiment: ELISA of Granzyme B in serum of CT26 tumor-bearing mice; type: in vivo, BALB/c mice; conditions: IN10018 25 mg/kg PO QD × 8, Doxil 3 mg/kg i.v. QW × 2; blood 24 hours after the second administration of Doxil; n=5
Experimental: as §1, §2

[5] = system: FAK and phosphorylated FAKY397; experiment: FAK knockdown efficiency by western blot; type: cell-based; conditions: 50 nM FAKsiRNA, SK-OV-3 cells, western blot 72 hours after transfection
Experimental: SK-OV-3 cells were used as the research object, and Lipofectamine 3000 was used to transfect the cells with 50 nM FAKsiRNA. After the assay, proteins were collected to detect the expression of FAK and phosphorylated FAKY397.
Lipofectamine 3000 was used as a transfection reagent. Downstream combination and ICD biomarker assays can be performed 24 hours after the transfection. 72 hours after the transfection, SK-OV-3 cell proteins were collected, and western blot was performed to detect the amount of phosphorylated FAKY397, FAK and alpha tubulin.

**Q.** Which IC50 [1] does the source give for `COc1cccc2c1C(=O)c1c(O)c3c(c(O)c1C2=O)C[C@@](O)(C(=O)CO)C[C@@H]3O[C@H]1C[C@H](N)[C@H](O)[C@H](C)O1` [Adriamycin, doxorubicin, reference compound] here?
**A.** 0.3 µM

**Q.** What about the “cell-killing effect observed under a microscope” value [2] of the same compound?
**A.** had cell-killing effect

**Q.** `COc1cc(C(=O)NC2CCN(C)CC2)c(F)cc1Nc1ncc(C(F)(F)F)c(Oc2cccc3c2C(=O)N(C)C3)n1` [IN10018] was tested. Which IC50 [1] did it give?
**A.** 10 µM

**Q.** What about the “IFN-γ protein concentration in serum” value [3] of the same compound?
**A.** 367.24 ± 7.34 pg/mL

**Q.** What about the “Granzyme B protein concentration in serum” value [4] of the same compound?
**A.** 50.48 ± 53.08 pg/mL

**Q.** What about the “cell-killing effect observed under a microscope” value [2] of the same compound?
**A.** in good condition

**Q.** With “FAKsiRNA: small interfering RNA for FAK knockdown, GenePharma; GGGCAUCAUUCAGAAGAUATT / UAUCUUCUGAAUGAUGCCCTT (chemistry not given here)” as the compound, how does the “knockdown effect on phosphorylated FAKY397 and total FAK proteins” value [5] read?
**A.** significant knockdown effect
